Measured values taken from ChEMBL document CHEMBL1201862, “PubChem BioAssay data set” (2004).
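Cells were grown in 96-well plates and exposed to each compound for 48 hours at five concentrations; endpoints were interpolated linearly between bracketing concentrations, or set to the highest concentration if not reached. GI50 marks 50% less growth.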 The source made the active and inactive calls. Rule as the data show it: active = GI50 up to about 1.1 µM and inactive = higher.

Experiments:
Assay in all cases: NCI-60 cell line screen, 48 h
[1] = tested on: IGROV-1
[2] = tested on: HOP-92
[3] = tested on: KM12
[4] = tested on: SK-MEL-28
[5] = tested on: NCI-H460
[6] = tested on: ACHN
[7] = tested on: SNB-19
[8] = tested on: A498
[9] = tested on: SF-268
[10] = tested on: HCC 2998
[11] = tested on: NCI-H23
[12] = tested on: SK-MEL-2
[13] = tested on: U-251
[14] = tested on: HCT-15
[15] = tested on: UACC-62
[16] = tested on: RXF 393
[17] = tested on: OVCAR-5
[18] = tested on: OVCAR-4
[19] = tested on: HCT-116
[20] = tested on: TK-10

| SMILES | GI50 [1] | GI50 [2] | GI50 [3] | GI50 [4] | GI50 [5] | GI50 [6] | GI50 [7] | GI50 [8] | GI50 [9] | GI50 [10] | GI50 [11] | GI50 [12] | GI50 [13] | GI50 [14] [µM] | GI50 [15] | GI50 [16] | GI50 [17] | GI50 [18] | GI50 [19] | GI50 [20] |
| --- | --- | --- | --- | --- | --- | --- | --- | --- | --- | --- | --- | --- | --- | --- | --- | --- | --- | --- | --- | --- |
| CSCCCNC(=O)c1csc(-c2csc(CCNC(=O)CNC(=O)CNC(=O)CNC(=O)OC(C)(C)C)n2)n1 | > 100 µM (inactive) | > 100 µM (inactive) | > 100 µM (inactive) | > 100 µM (inactive) | > 100 µM (inactive) | > 100 µM (inactive) | > 100 µM (inactive) | > 100 µM (inactive) | > 100 µM (inactive) | > 100 µM (inactive) | > 100 µM (inactive) | > 100 µM (inactive) | > 100 µM (inactive) | > 100 | > 100 µM (inactive) | > 100 µM (inactive) | > 100 µM (inactive) | > 100 µM (inactive) | > 100 µM (inactive) | > 100 µM (inactive) |
| CC(C)(C)c1cc(C(=O)/C=C/c2ccc3c(c2)OCO3)cc(C(C)(C)C)c1O | 17.9 µM (inactive) | 25.6 µM (inactive) | 5.05 µM (inactive) | 18.6 µM (inactive) | 4.8 µM (inactive) | 8.55 µM (inactive) | 13.3 µM (inactive) | 10.3 µM (inactive) | 8.79 µM (inactive) | 1.75 µM (inactive) | 9.82 µM (inactive) | 3.26 µM (inactive) | 6.68 µM (inactive) | 4.83 | 6.04 µM (inactive) | 1.86 µM (inactive) | 16.3 µM (inactive) | 6.95 µM (inactive) | 4.51 µM (inactive) | 9.91 µM (inactive) |
| CN1C(=O)C(C#N)C2C[C@@]1(C)Oc1ccccc12 (stereo not given in full) | > 100 µM (inactive) | > 100 µM (inactive) | > 100 µM (inactive) | > 100 µM (inactive) | 91.8 µM (inactive) | > 100 µM (inactive) | > 100 µM (inactive) | > 100 µM (inactive) | > 100 µM (inactive) | > 100 µM (inactive) | > 100 µM (inactive) | > 100 µM (inactive) | > 100 µM (inactive) | > 100 | > 100 µM (inactive) | > 100 µM (inactive) | > 100 µM (inactive) | > 100 µM (inactive) | > 100 µM (inactive) | > 100 µM (inactive) |
| CCCCC(CC)C(=O)Oc1ccc(C(=O)c2ccccc2)c(O)c1 (stereo not given) | 55.7 µM (inactive) | 23.2 µM (inactive) | 15.4 µM (inactive) | 36.8 µM (inactive) | 35 µM (inactive) | 48.1 µM (inactive) | 68.9 µM (inactive) | 45.9 µM (inactive) | 34.5 µM (inactive) | 52.8 µM (inactive) | 35.2 µM (inactive) | 56.4 µM (inactive) | 46.7 µM (inactive) | 40.1 | 32 µM (inactive) | 49.8 µM (inactive) | 38.5 µM (inactive) | 31 µM (inactive) | 43.3 µM (inactive) | 58.7 µM (inactive) |
| N#Cc1c(Cl)cc(Cl)n2c1nc1ccccc12 | 8.05 µM (inactive) | 4.85 µM (inactive) | 18.3 µM (inactive) | 7.35 µM (inactive) | 8 µM (inactive) | 2.64 µM (inactive) | 22 µM (inactive) | 22 µM (inactive) | 14.1 µM (inactive) | 2.51 µM (inactive) | 18.2 µM (inactive) | 17.6 µM (inactive) | 20 µM (inactive) | 3.43 | 12.6 µM (inactive) | 13.2 µM (inactive) | 20 µM (inactive) | 10.4 µM (inactive) | 4.74 µM (inactive) | 6.68 µM (inactive) |
